pKi: −log10 of the molar value. Counter-ions that a name gives are not always drawn.
Target: human recombinant 5-HT2A receptor (Homo sapiens (Human), UniProt P28223)
Test: Determination of Ki value at 5-HT2A receptor ([3H]-Ketanserine radioligand binding)
Procedure: Determination of Ki Value at 5-HT2A Receptor
Compound was tested according to the following procedures.
Receptor source: Recombinant mammalian cells
Radioligand: [^3H]-Ketanserine (47.3 Ci/mmol)
Final ligand concentration—[1.75 nM]
Non-Specific Ligand: 0.1 mM 1-Naphthylpiperazine (1-NP)
Reference compound: 1-Naphthylpiperazine (1-NP)
Positive control: 1-Naphthylpiperazine (1-NP)
Incubation conditions: Reactions were carried out in 67 mM Tris-HCl (pH 7.4) for 1 hour at 37° C. The reaction was terminated by rapid vacuum filtration onto the glass fiber filters. Radioactivity trapped onto the filters was determined and compared to the control values in order to ascertain any interactions of the test compound(s) with the cloned serotonin 5-HT2A binding site. Reference: Methods in Molecular Biology, 2002, 190, 31-49 Results:
. The Ki values tabulated below are average of three independent experiments.

**Q.** How did the pKi turn out when `COc1ccc2c(c1)c(CN1CCN(C)CC1)cn2S(=O)(=O)c1ccc(F)cc1` [Compound 2, 1-[(4-Fluorophenyl)sulfonyl]-5-methoxy-3-[(4-methyl-1-piperazinyl)methyl]-1H-indole dihydrochloride] was run?
**A.** < 5.00
